Converted amounts (≈) assume the structure as drawn.
How the values were obtained:
DPPH assay = conditions: for IC50: metabolites and standards, in dichloromethane
Procedure: Experiments were performed according to previous procedures. Aliquots of dichloromethane solutions of oil or fractions (50–500 mg/mL) or test compounds (final concentration 0.01–2 mM) were added to 200 µL of a freshly prepared DPPH solution (75 mg/L), and the final volume was adjusted to 300 µL with dichloromethane to obtain a final DPPH concentration of 0.13 mM. The absorbance was read at 517 nm on a microplate reader 3 min after sample addition. Experiments were performed in triplicate and averaged. The DPPH inhibition was calculated as follows:Inhibition (%) = [100 × (A0 − A)/A0](1)

[1] = tested on: A549 human lung carcinoma cells; experiment: MTT cytotoxicity on A549 cells; assay type: cell-based; conditions: 50% viability after 48 h
[2] = tested on: Staphylococcus aureus (ATCC 6538); experiment: Antimicrobial disk-diffusion agar method; assay type: cell-based; conditions: for Antimicrobial activity against S. aureus, in words: 20 µg per disc; for zone of inhibition at 20 µg/disc: Staphylococcus aureus, ATCC6538, 20 µg/disk, 24 h, read-out: S. aureus Diameter of the zone of inhibition
3T3 fibroblasts = experiment: MTT cytotoxicity on 3T3 fibroblasts; assay type: cell-based, murine; conditions: Mus musculus, Fibroblast, 50% viability after 48 h
M. tuberculosis H37 RV = experiment: Anti-mycobacterial Microplate-based Alamar Blue assay (MABA); assay type: cell-based; conditions: Mycobacterium tuberculosis, H37RV
[3] = Total peroxyl radical-trapping potential (TRAP) assay; conditions: for TRAP TE: metabolites and standards: activity of a 1 µM-solution relative to 1 µM Trolox
Procedure: The experimental protocol of the TRAP assay was previously reported. Briefly, AAPH (150 mM) was dissolved in 10 mL of Tris HCl buffer solution (100 mM, pH 7.4), and the solution was kept at 37 °C for 30 min to initiate thermal radical formation. A luminol stock solution (1 mM) was prepared in 50 mL Tris HCl buffer and kept in darkness at 4 °C. A 78 µM, working luminol solution was prepared before each assay by dilution in Tris HCl buffer. Samples for assays were prepared as follows: 2 mL of AAPH (final concentration, 100 mM) and 500 μL of luminol solution (final concentration, 13 µM) were introduced in a 3 mL tube; then, 500 μL of pure acetone (blank) or solution of the tested oil or extract in acetone (0.005–0.2 mg/mL) or DMSO (test compounds: 5–300 µM) were added and the mixture vortexed for 5 s before luminescence analysis. A calibration curve was obtained in the same conditions using the antioxidant Trolox (1–40 μM) as a standard.
Quantification of radical scavenging capacity was performed by integrating the area under the curve (AUC) for the sample and blank solutions, and the results are expressed as Trolox Equivalents (TE) using Equation (2):TE = ([Trolox] × ΔAUC Sample)/([Sample] × ΔAUC Trolox)(2) where ΔAUC Sample (Trolox) = AUC Blank − AUC Sample (Trolox).

[4] = target: T1, Lipoxygenase (15-LOX, soybean) (Glycine max, UniProt P08170); experiment: Lipoxygenase inhibitory activity (Cayman kit); assay type: biochemical; conditions: compounds at 100 µg/mL
T1 sequence (P08170 1-839): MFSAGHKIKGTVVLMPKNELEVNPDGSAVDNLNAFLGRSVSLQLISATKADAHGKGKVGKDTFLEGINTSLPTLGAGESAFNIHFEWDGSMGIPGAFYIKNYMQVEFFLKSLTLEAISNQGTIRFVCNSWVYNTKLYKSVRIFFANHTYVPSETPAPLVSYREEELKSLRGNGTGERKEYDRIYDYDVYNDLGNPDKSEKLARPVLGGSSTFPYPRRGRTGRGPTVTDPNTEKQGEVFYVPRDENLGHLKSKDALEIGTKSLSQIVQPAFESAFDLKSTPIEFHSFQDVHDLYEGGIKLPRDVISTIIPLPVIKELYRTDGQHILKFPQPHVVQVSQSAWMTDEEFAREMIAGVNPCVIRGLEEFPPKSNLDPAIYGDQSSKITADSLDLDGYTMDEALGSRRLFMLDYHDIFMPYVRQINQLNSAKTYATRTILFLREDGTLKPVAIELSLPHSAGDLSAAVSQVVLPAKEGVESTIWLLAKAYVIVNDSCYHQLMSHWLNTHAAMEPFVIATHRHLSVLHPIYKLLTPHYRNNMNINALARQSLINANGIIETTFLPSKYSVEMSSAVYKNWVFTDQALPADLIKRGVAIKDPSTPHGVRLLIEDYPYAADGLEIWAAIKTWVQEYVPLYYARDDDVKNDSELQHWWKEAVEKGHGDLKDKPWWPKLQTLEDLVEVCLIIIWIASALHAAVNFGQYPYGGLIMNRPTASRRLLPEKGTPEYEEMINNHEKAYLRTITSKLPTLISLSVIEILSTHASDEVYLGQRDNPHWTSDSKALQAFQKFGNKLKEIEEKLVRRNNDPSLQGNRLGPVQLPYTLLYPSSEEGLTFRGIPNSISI
Procedure: Lipoxygenase (15-LOX, soybean) inhibitory activity was evaluated using a commercial assay kit (Cayman Chemicals Co; Item No. 760700) according to the manufacturer’s instructions. Solutions of test samples (10 μL) in methanol were added into 96-wells plates together with assay buffer, and the enzyme was added. The reaction was initiated by adding 10 μL of arachidonic acid to the wells and the plate was placed on a shaker for 15 min. Chromogen solution (100 μL) was added to the wells, the plate was then placed on a shaker for 10 min and absorbance was read at 495–500 nm. […] Results are expressed as a percentage relative to the activity without the test compound.

[5] = Metal chelating capacity (ferrozine); conditions: EDTA equivalents per gram of extract
[6] = Superoxide radical quenching (allopurinol-XO generator, lucigenin luminescence); conditions: glycine buffer/acetone
Procedure: All reactants were dissolved in glycine buffer, and the reaction was carried out at 25 °C [30]. […] The test tube was inserted in the luminometer, and reaction was initiated by adding a XO suspension (2 µL, 11 mU/mL). Luminescence was monitored for a total period of 7 min and O2^•− quenching was calculated by subtracting areas under the curve against blank. Each measurement was performed in triplicate.

[7] = target: T2, xanthine oxidase (XO; from buttermilk) (Bos taurus, UniProt P80457); experiment: biochemical; conditions: 30 min, 37 °C; read-out: XO Inhibition IC50 (converted)
T2 construct: purchased Sigma-Aldrich; host or cells: buttermilk (natural source)
Procedure: All reactants were dissolved in PBS (0.2 M, pH 7.5). The experiments were performed at 37 °C in 96-wells microplates with a final volume of 250 µL/well [30]. […] To all wells, 25 µL of EDTA (0.1 mM in PBS) and 25 µL of xanthine solution (500 µM) were then added, and the reaction was started by adding 50 µL of XO suspension (23.32 mU/mL), while PBS (50 µL) was added in blank samples. The final concentrations were: xanthine, 50 µM; EDTA, 10 µM and XO, 4.7 mU/mL. The wells were incubated for 30 min at 37 °C, and uric acid production was determined by subtracting the absorbance at 290–295 nm of the sample against that of the blank. Each measurement was performed in triplicate.

T2 sequence (P80457 whole entry): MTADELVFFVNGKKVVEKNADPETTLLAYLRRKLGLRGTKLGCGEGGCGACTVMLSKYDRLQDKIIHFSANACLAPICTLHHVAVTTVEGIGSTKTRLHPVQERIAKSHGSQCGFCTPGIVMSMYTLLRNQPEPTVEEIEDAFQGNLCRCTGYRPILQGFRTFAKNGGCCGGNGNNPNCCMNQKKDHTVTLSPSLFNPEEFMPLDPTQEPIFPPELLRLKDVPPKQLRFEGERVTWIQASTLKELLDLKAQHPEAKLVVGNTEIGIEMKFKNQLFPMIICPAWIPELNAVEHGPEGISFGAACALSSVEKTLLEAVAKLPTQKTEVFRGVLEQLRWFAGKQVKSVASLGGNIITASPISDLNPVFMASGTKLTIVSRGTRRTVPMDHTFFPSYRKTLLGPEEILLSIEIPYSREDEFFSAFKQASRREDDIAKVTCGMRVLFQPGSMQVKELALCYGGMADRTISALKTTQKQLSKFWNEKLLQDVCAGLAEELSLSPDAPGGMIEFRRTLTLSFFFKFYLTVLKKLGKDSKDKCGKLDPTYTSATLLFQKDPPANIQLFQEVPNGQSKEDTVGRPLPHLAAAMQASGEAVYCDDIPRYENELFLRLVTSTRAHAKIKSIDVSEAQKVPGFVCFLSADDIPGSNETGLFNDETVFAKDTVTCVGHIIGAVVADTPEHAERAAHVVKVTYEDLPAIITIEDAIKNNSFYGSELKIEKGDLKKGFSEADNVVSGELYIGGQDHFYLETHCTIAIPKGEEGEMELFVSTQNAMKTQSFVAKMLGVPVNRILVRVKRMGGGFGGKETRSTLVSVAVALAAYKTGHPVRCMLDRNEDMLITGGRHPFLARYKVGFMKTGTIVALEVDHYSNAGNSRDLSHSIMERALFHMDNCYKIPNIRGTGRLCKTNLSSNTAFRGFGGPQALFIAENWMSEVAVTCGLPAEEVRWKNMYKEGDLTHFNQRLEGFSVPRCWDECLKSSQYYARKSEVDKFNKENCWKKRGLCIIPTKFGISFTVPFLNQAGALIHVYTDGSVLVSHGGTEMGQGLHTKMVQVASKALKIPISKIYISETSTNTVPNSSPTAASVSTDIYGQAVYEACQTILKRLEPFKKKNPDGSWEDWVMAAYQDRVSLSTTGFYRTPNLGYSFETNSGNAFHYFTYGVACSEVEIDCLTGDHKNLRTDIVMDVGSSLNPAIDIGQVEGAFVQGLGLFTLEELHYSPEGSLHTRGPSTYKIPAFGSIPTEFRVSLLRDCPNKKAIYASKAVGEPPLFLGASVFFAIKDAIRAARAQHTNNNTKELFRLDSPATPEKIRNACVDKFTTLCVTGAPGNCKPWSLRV

SMILES	DPPH scavenging capacity, in words (DPPH assay)	IC50 (DPPH assay) [µM]	IC50 [1] [µg/mL]	Antimicrobial activity against S. aureus, in words [2]	zone of inhibition at 20 µg/disc [2] [mm]	IC50 (3T3 fibroblasts) [µg/mL]	MIC (M. tuberculosis H37 RV) [µg/mL]	TRAP TE [3] [TE]	inhibition at 100 µg/mL [4] [%]	MCC [5] [µmol EDTAE/g]	O2•− Quenching IC50 [6] [µg/mL]	IC50 [7] [µM]	TRAP activity, in words [3]
CCCc1cc(=O)oc2c3c(c4c(c12)OC(C)(C)C=C4)O[C@H](C)[C@@H](C)C3=O [12-Oxocalanolide A]	inactive	> 1000	1.9 ± 0.1 (≈ 5.16 µM)	significant activity	18 ± 2	36 ± 8 (≈ 97.7 µM)	> 15						
COc1ccc(O)c(C(C)(C)C)c1 [BHA, reference compound]		94.9 ± 6.1						3.46 ± 0.20					
O=C(O)/C=C/c1ccc(O)c(O)c1 [Caffeic acid]		18.1 ± 0.21						2.98 ± 0.14	45 ± 1	125± 5	0.013 ± 0.06	219	
CCCc1cc(=O)oc2c3c(c4c(c12)OC(C)(C)C=C4)O[C@H](C)[C@@H](C)[C@@H]3O [Calanolide A]	slightly active	~950	8.2 ± 1.7 (≈ 22.1 µM)		14 ± 1	52 ± 8 (≈ 140 µM)	4.1 ± 0.3 (≈ 11.1 µM)	0.40 ± 0.02					
CCCc1cc(=O)oc2c3c(c4c(c12)OC(C)(C)C=C4)O[C@H](C)[C@H](C)C3=O [Calanolide D]	inactive	> 1000											
C/C=C(\C)C(=O)c1c(OC)c2c(c3c(CCC)cc(=O)oc13)OC(C)(C)C=C2 [Calanolide GUT 70]	slightly active	~900						0.30 ± 0.03					weakly active
C/C=C(\C)C(=O)c1c(OC)c2c(c3c(-c4ccccc4)cc(=O)oc13)OC(C)(C)C=C2 [Calophyllolide]	slightly active	~890	3.1 ± 0.9 (≈ 7.44 µM)	significant activity	19 ± 3	49 ± 4 (≈ 118 µM)	> 15	0.48 ± 0.08					weakly active
O=C(O)c1cc(O)c(O)c(O)c1 [Gallic acid]									28 ± 2	90 ± 3	0.022 ± 0.01	242	
C=C(C)C(CC=C(C)C)CC1(CC=C(C)C)C(=O)C(C(CCC)CC(=O)O)=C(O)C2=C1O[C@H](C)[C@@H](C)C2=O (some centres unmarked) [Inocalophyllin B]	moderately active	583 ± 17	4.2 ± 1.3 (≈ 7.97 µM)	active	20 ± 2	41 ± 5 (≈ 77.8 µM)	> 15	1.07 ± 0.06					significant TRAP activity

From publication PMC7910904, “Improving the Antioxidant Properties of Calophyllum inophyllum Seed Oil from French Polynesia: Development and Biological Applications of Resinous Ethanol-Soluble Extracts” (Antioxidants, 2021)
